Reference: patent US20150313897A1, “METHODS FOR TREATING PARKINSON'S DISEASE” (Teva Pharmaceuticals International GmbH, priority 2009, published 2015)
Entries after “also recorded” stand apart in the source; their conditions may differ.

Legend:
Assay type in all cases: in vivo, rhesus monkeys
[1] = Ropinirole plasma levels (PK) after NP201 implant or TID oral ropinirole; conditions: oral ropinirole group relative to NP201
Description: (§1) In the Experimentation Phase, the monkeys were assigned to one of three treatment groups: Group 1—oral ropinirole TID using the mean lowest effective dose determined in the Dose Finding Phase. Group 2—NP201 releasing ropinirole at a dose of either approximately 1/9th or 1/18th of the total daily oral TID dose), e.g., for a single 1.00 mg/kg oral dose, the daily dose would be 3.00 mg/kg/day and the implant doses would then be 0.33 mg/kg/day or 0.17 mg/kg/day, respectively. Group 3—Control group will receive both a subcutaneous placebo implant and an oral placebo TID.
In order to collect Pharmacokinetic (“PK”) samples, monkeys were tranquilized with ketamine (7-10 mg/kg intramuscularly) in order to collect 1 cc of blood from the saphenous vein. Plasma samples were collected into appropriately labeled collection tubes. One cc blood samples were collected by catheter or venipuncture into EDTA collection tubes for ropinirole plasma concentrations by a validated HPLC with MS/MS detection. The plasma samples were frozen within two hours after collection and remained frozen until analyzed. PK Samples for the Dose Finding Phase (Oral dose) were drawn on days 1 and 14 at 60, 120, 180, 240 and 360 minutes after one oral dose of 1.0 mg/kg. PK Samples for the Experimentation Phase (NP201 implants) were drawn in all […] test groups in order to test the blood levels of ropinirole. […]

MPTP treated monkeys [2] = test: Clinical Rating Scale (CRS) in primate model of Parkinson's Disease; conditions: NP201 at 1/9th of the oral dose; p<0.05
Description: In the MPTP Induction Phase, the monkeys were made bilaterally Parkinsonian with the use of MPTP. Monkeys received an initial dose of 0.3 mg/kg MPTP through a unilateral intracarotid injection and twice weekly injections of 0.3 mg/kg intravenous (i.v.) MPTP until they achieve a score of between 7.0 and 20.5 (e.g., 12 or higher) on the clinical rating scale with moderate bilateral Parkinsonism. Intravenous MPTP is administered at 3-5 day intervals. The actual cumulative number of i.v. MPTP injections is determined by the onset of stable bilateral symptoms. This protracted time course of i.v. MPTP administration allowed for development and evaluation of new Parkinsonian symptoms following each MPTP administration. […]
In the Experimentation Phase, the monkeys were assigned to one of three treatment groups: Group 1—oral ropinirole TID using the mean lowest effective dose determined in the Dose Finding Phase. […]
A Clinical Rating Scale for neurobehavioral examination was used to assess the clinical status of the monkeys under; normal, MPTP, and MPTP+treatment conditions, once per week, according to previously published protocols. […] Subjects were assessed once per week. All groups were assessed one hour after dosing. […] Occurrence of dyskinesia, psychological disturbances and vomiting were also recorded.

MPTP treated monkeys [3] = test: Activity monitoring system (AMS), 12-hour light/dark cycle
Description: as §1
The activity monitoring system (“AMS”) records a 12-hour light/dark cycle. Each monkey was fitted with a monkey jacket that contained an activity monitor (Actitrac 1M Systems, Baltimore, Md.) in the inside back pocket. This activity monitor measured motion along its vertical and horizontal axes digitizing acceleration signals at a 40 Hertz sampling rate and stored the average acceleration value calculated during each consecutive time interval. The number of pulses was expressed for a pre-selected time period (1 minute). Data was collected continuously in 1-minute bins for a period of to 14 days. At the end of the period, the monkeys were again tranquilized with ketamine (15 mg/kg, intramuscularly), the activity monitor was removed and interfaced with a computer, and the data was downloaded. The data was expressed as the mean activity of each 12-hour light/dark cycle.

Question: For `CCCN(CCC)CCc1cccc2c1CC(=O)N2` [oral ropinirole, 4-(2-di-n-propylaminoethyl)-2(3H)-indolone], which “variability of plasma levels” value [1] is on record?
Answer: much greater variability

Question: And the “CRS measure versus placebo” value (MPTP treated monkeys [2])?
Answer: statistically superior to placebo

Question: What about the “activity levels, Sat-Sun (weekend)” value (MPTP treated monkeys [3]; days 10-42, versus pre-MPTP baseline and placebo, no active oral agent given on weekend days) of the same molecule?
Answer: resembled placebo with reduced activity relative to baseline; also recorded: indistinguishable from placebo

Question: What about the “activity levels, Wed-Fri” value (MPTP treated monkeys [3]; days 10-42, versus pre-MPTP baseline, oral: peak about 1 hour after each dose during wake cycle) of the same molecule?
Answer: exceeded baseline, pre-MPTP levels

Question: What about the “overall pattern of activity (12-hour light/dark cycles)” value (MPTP treated monkeys [3]; versus pre-MPTP baseline / healthy monkeys) of the same molecule?
Answer: alternating periods of very high activity interspersed with normal levels; also recorded: alternating periods of very high and normal activity
